Assay results from BindingDB's records for doi:10.1016/s0960-894x(01)00758-2 (University of St. Andrews, 2002).

Assay: Tested for binding affinity against kynureninase enzyme from bacterial cells

Ki: 10 µM
Structure (SMILES): NC(CC(O)c1cccc(O)c1)C(=O)O (stereo unspecified) [2-amino-4-[3'-hydroxyphenyl]-4-hydroxybutanoic acid]
